Results on 23 compounds are retold here after US20190330141A1, “Compositions With A Cooling Effect” (The Procter & Gamble Company, priority 2018, published 2019).

Where a name gives a salt, the structure may show the parent alone. Read-outs that look alike come from different tables or passages of the source. Bounds are passed on as bounds.

The conditions of experiment [1]: concentration where the cooling effect could be clearly recognized; cited from earlier work.
The target in experiment [2] is T1, human TRPM8 (Homo sapiens, UniProt Q7Z2W7).
T1 construct: expressed in transfected cells; host or cells: HEK-293
T1 sequence (Q7Z2W7 whole entry): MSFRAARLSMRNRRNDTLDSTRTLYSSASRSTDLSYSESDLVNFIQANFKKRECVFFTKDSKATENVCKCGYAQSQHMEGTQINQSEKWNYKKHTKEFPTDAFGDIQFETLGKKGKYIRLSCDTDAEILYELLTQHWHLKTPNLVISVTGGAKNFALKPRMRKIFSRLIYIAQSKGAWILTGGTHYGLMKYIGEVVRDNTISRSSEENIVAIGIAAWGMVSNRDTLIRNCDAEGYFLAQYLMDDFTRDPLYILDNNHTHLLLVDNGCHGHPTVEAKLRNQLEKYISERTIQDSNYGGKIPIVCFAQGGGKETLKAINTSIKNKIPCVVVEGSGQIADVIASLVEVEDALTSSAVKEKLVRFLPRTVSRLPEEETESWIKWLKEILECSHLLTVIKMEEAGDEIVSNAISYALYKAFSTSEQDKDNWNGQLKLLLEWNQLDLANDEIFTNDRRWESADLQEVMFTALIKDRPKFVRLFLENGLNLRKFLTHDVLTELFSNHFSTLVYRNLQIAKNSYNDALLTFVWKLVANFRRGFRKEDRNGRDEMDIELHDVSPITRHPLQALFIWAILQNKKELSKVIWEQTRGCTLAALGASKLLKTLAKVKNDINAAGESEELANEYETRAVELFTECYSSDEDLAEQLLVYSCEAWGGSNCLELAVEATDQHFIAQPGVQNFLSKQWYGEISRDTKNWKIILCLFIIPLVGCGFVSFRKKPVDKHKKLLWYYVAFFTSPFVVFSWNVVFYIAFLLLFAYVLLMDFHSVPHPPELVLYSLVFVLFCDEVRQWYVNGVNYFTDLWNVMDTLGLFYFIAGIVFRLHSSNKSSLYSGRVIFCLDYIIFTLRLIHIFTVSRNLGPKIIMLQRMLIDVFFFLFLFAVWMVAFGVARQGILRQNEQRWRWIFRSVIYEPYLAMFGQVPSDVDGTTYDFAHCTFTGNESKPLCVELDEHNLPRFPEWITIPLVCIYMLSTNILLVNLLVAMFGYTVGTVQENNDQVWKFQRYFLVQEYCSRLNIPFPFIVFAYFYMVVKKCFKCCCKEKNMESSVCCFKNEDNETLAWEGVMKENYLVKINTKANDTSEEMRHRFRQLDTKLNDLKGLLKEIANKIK
Nature of the experiment: TRPM8 Protocol-FLIPR Assay (intracellular Ca2+ in transfected HEK-293 cells). Type of experiment: cell-based. To be noted: for EC50 values compared with Comp 4: comparison with the EC50 value of Comp 4. How it is done: To determine whether TRPM8 is activated, the intracellular calcium ion (Ca^2+) level was measured from transfected cells with the TRPM8 receptor sequence (SEQ ID NO: 1). HEK-293 (human embryonic kidney) cells stably transfected with human TRPM8 were grown in 15 mL growth medium (high glucose DMEM (Dulbecco's Modification of Eagle's Medium) supplemented with 10% FBS (fetal bovine serum), 100 μg/mL penicillin/streptomycin, 5 μg/mL blasticindin, and 100 μg/mL zeocin) in a 75 cm^2 flask for 3 days at 37° C. in a mammalian cell culture incubator (Forma Scientific Model 3110, Marietta, Ohio) set at 5% CO2. Cells were detached with addition of 2 mL of trypsin-EDTA buffer (GIBCO® 25200, Invitrogen, Grand Island, N.Y.) for about 2-3 min. Trypsin was inactivated by addition of 8 mL growth medium. Cells were transferred to a 50 mL tube and centrifuged at 850 rpm for 3 minutes to remove medium. After centrifugation, a pellet of cells was formed in the bottom of the tube separating them from the supernatant solution. The supernatant was discarded and the cell pellet was suspended in 1 mL of fresh growth medium to which 5 μL (12.5 μg) of Fluo-4 AM (Molecular Probes, Inc., Eugene, Oreg.) calcium indicator was added and incubated for 30 min with gentle shaking. Fluo-4 AM is a fluorescent dye used for quantifying cellular Ca^2+ concentrations in the 100 nM to 1 μM range. At the end of 30 minutes, 45 mL of assay buffer (1×HBSS (Hank's Balanced Salt Solution), 20 mM HEPES (4-(2-Hydroxyethyl)-1-piperazineethanesulfonic acid)) was added to wash cells and the resulting mixture was then centrifuged at 850 rpm for 3 minutes at 20° C. to remove excess buffer and Fluo-4 AM calcium indicator.
The pelleted cells were re-suspended in 10 mL assay buffer and 90 μL aliquots (50,000 cells) per well delivered to a 96-well assay plate containing 10 μL of test compounds (1 mM in assay buffer, final concentration 100 μM) or buffer control and incubated at room temperature for 30 minutes. After 30 minutes, a plate (Falcon 353219, Corning Corning N.Y.) was placed into a fluorometric imaging plate reader (FLIPR384 from Molecular Devices, Sunnyvale, Calif.) and basal fluorescence recorded (excitation wave length 488 nm and emission wave length 510 nm). Then 20 μL of 100 mM of TRPM8 agonist WS5 coolant in the assay buffer was added and fluorescence recorded. For determining the direct effect of test compounds on TRPM8, fluorescence was measured immediately after addition of each compound. Additional discussion of the FLIPR method can be found in Smart et al., Characterization using FLIPR of human vanilloid VR1 receptor pharmacology, European Journal of Pharmacology 417, 51-58 (2001) and Liu et al., Development and validation of a platelet calcium flux assay using a fluorescent imaging plate reader, Analytical Biochemistry 357, 216-224 (2006).
The magnitude of the fluorescence of the active-treated cells was compared to the magnitude of the fluorescence from a benchmark agonist (WS-5), as described above. The percentage of fluorescence as a function of active dose was plotted and a sigmoidal curve was generated. Curve fitting from this dose-response curve yielded the value for TRPM8 EC50 in μM found in TABLE 8.
TRPM8 activation was determined by measuring intracellular calcium ion (Ca^2+) level from transfected cells with the TRPM8 receptor gene, as described in EXAMPLE 12, the results of which are shown in TABLE 8. EC50 values are provided in column 3 of TABLE 8, which measured the concentration of activating compound needed to […]. […]

Setting [3] is: HEK-293 cells stably transfected with human TRPM8, fluorescence compared to benchmark agonist WS-5, dose-response curve fit, read-out: TRPM8 Activity EC50.
Where [4] appears, read: less than about 1 μM, 0.6 μM, or the EC50 value of Comp 3, read-out: EC50 values.

Turning to `CC(C)[C@@H]1CC[C@@H](C)C[C@H]1O` [L-menthol], the cooling threshold result in experiment [1] is reported as “about 800 ppb”.
Take `Cc1ccc(C(C)C)c(C(=O)NC[C@@H](NC(=O)[C@H](C)N)c2ccccc2)c1.Cl` [Compound 6d, (S)-1-(((S)-2-(2-isopropyl-5-methylbenzamido)-1-phenylethyl)amino)-1-oxopropan-2-aminium chloride]: the EC50 was 6.6 nM in experiment [2] (setting [3]) and under 1000 nM in experiment [2] (setting [4]). Further, in experiment [2], the “EC50 values compared with Comp 4” value is recorded as “about the same or less than the EC50 value of Comp 4”.
Take `Cc1ccc(C(C)C)c(OC(=O)C[C@@H](N)c2ccccc2)c1` [Comp 2, reference compound]: in experiment [2] (setting [3]), the EC50 was determined as 12000 nM.
Turning to `Cc1ccc(C(C)C)c(C(=O)NC[C@@H](NC(=O)CN)c2ccccc2)c1.Cl` [Compound 6a], in experiment [2], the “EC50 values compared with Comp 4” value is on record as “about the same or less than the EC50 value of Comp 4”.
Consider `CC(C)[C@@H]1CC[C@@H](C)C[C@H]1C(=O)NC[C@@H](NC(=O)[C@H](C)N)c1ccccc1` [Comp 4, reference compound], for which the EC50 in experiment [2] (setting [3]) is 9 nM.
As to `Cc1ccc(C(C)C)c(C(=O)NC[C@@H](NC(=O)[C@@H](C)N)c2ccccc2)c1.Cl` [Compound 6c, (R)-1-(((S)-2-(2-isopropyl-5-methylbenzamido)-1-phenylethyl)amino)-1-oxopropan-2-aminium chloride], the values for the EC50 in experiment [2] (setting [3]) and in experiment [2] (setting [4]) were 3.2 nM and under 1000 nM, respectively. In experiment [2], the “EC50 values compared with Comp 4” value was “about the same or less than the EC50 value of Comp 4”.
On to `C[C@@H](N)C(=O)N[C@H](CNC(=O)c1ccccc1)c1ccccc1` [Compound 1c, (R)-1-(((S)-2-benzamido-1-phenylethyl)amino)-1-oxopropan-2-aminium chloride], for which the EC50 is 582 nM in experiment [2] (setting [3]) and under 1000 nM in experiment [2] (setting [4]).
For the compound `NCC(=O)N[C@H](CNC(=O)c1ccccc1)c1ccccc1` [Compound 1a, (S)-2-((2-benzamido-1-phenylethyl)amino)-2-oxoethan-1-aminium chloride], the EC50 in experiment [2] (setting [3]) was 655 nM; in experiment [2] (setting [4]) it was under 1000 nM.
`Cc1ccc(C(C)C)c(C(=O)NC[C@@H](N)c2ccccc2)c1` [Compound 6b, (S)-2-(2-isopropyl-5-methylbenzamido)-1-phenylethan-1-aminium chloride]: the results for the EC50 in experiment [2] (setting [3]) and in experiment [2] (setting [4]) were 155 nM and under 1000 nM, respectively.
Turning to `CC(C)[C@@H]1CC[C@@H](C)C[C@@H]1O` [d-neomenthol], in experiment [1], the cooling threshold result is “about 25,000 ppb”.
Consider `CC(C)C(C)(C(=O)OC[C@@H](NC(=O)[C@H](C)N)c1ccccc1)C(C)C` [Compound 8a, (S)-2-((S)-2-aminopropanamido)-2-phenylethyl 2-isopropyl-2,3-dimethylbutanoate hydrochloride], for which the EC50 in experiment [2] (setting [3]) is 415 nM; in experiment [2] (setting [4]), under 1000 nM.
As to `CC(C)C(C)(C(=O)OC[C@@H](NC(=O)[C@@H](C)N)c1ccccc1)C(C)C` [Compound 8b, (S)-2-((R)-2-aminopropanamido)-2-phenylethyl 2-isopropyl-2,3-dimethylbutanoate hydrochloride], the EC50 in experiment [2] (setting [3]) was 57 nM; in experiment [2] (setting [4]), under 1000 nM.
Take `Cc1ccc(C(C)C)c(OC(=O)C[C@@H](NC(=O)[C@@H](C)N)c2ccccc2)c1` [Compound 7b, (R)-1-(((R)-3-(2-isopropyl-5-methylphenoxy)-3-oxo-1-phenylpropyl)amino)-1-oxopropan-2-aminium chloride]: the EC50 in experiment [2] (setting [3]) was 60 nM; in experiment [2] (setting [4]) it was under 1000 nM.
Take `Cc1ccc(C(C)C)c(C(=O)NC[C@@H](NC(=O)CN)c2ccccc2)c1.Cl` [Compound 6a, (S)-2-((2-(2-isopropyl-5-methylbenzamido)-1-phenylethyl)amino-2-oxoethan-1-aminium chloride]: the EC50 in experiment [2] (setting [3]) is 1.9 nM; in experiment [2] (setting [4]), under 1000 nM.
`CC(C)C(C)(C(=O)NC[C@@H](OC(=O)CN)c1ccccc1)C(C)C.Cl` [Compound 10a, (S)-2-(2-isopropyl-2,3-dimethylbutanamido)-1-phenylethyl glycinate hydrochloride]: the EC50 was 7.85 nM in experiment [2] (setting [3]) and under 1000 nM in experiment [2] (setting [4]). For the same compound, in experiment [2], the “EC50 values compared with Comp 4” value is “about the same or less than the EC50 value of Comp 4”.
On to `C[C@@H](N)C(=O)N[C@H](CNC(=O)c1cccnc1)c1ccccc1` [Compound 2c, (R)-1-(((S)-2-(nicotinamido)-1-phenylethyl)amino)-1-oxopropan-2-aminium chloride], for which, in experiment [2] (setting [3]), the EC50 amounted to 28000 nM.
Consider `N[C@H](CNC(=O)c1ccccc1)c1ccccc1` [Comp 1, reference compound], for which, in experiment [2] (setting [3]), the EC50 is over 10000 nM.
Turning to `CC(C)=CCC/C(C)=C/C(=O)NC[C@@H](NC(=O)CN)c1ccccc1` [Compound 4a, (S,E)-2-((2-(3,7-dimethylocta-2,6-dienamido)-1-phenylethyl)amino-2-oxoethan-1-aminium chloride], the EC50 in experiment [2] (setting [3]) was determined as 1200 nM.
As for `CC(C)[C@@H]1CC[C@@H](C)C[C@H]1C(=O)Nc1ccc(CC#N)cc1` [Comp 3, reference compound], the EC50 in experiment [2] (setting [3]) was 600 nM.
Regarding `Cc1ccc(C(C)C)c(OC(=O)C[C@@H](NC(=O)CN)c2ccccc2)c1` [Compound 7a, (R)-2-((3-(2-isopropyl-5-methylphenoxy)-3-oxo-1-phenylpropyl)amino-2-oxoethan-1-aminium chloride], the EC50 in experiment [2] (setting [3]) was 230 nM; in experiment [2] (setting [4]) it was under 1000 nM.
For `CC(C)[C@@H]1CC[C@@H](C)C[C@@H]1O` [Compound 1-neomenthol, 1-neomenthol], the cooling threshold entry in experiment [1] is recorded as “about 3,000 ppb”.
For the compound `CC(C)=CCC/C(C)=C/C(=O)NC[C@@H](NC(=O)[C@@H](C)N)c1ccccc1` [Compound 4b, (R)-1-(((S)-2-((E)-3,7-dimethylocta-2,6-dienamido)-1-phenylethyl)amino)-1-oxopropan-2-aminium chloride], the EC50 in experiment [2] (setting [3]) worked out at 1450 nM.
For the compound `NCC(=O)O[C@H](CNC(=O)C12CC3CC(CC(C3)C1)C2)c1ccccc1` [Compound 11a, (S)-2-((3S,5S,7S)-adamantane-1-carboxamido)-1-phenylethyl glycinate hydrochloride], the values for the EC50 in experiment [2] (setting [3]) and in experiment [2] (setting [4]) were 17.2 nM and under 1000 nM, respectively.
